In US7848557B2, “Rapid multi-tracer PET imaging systems and methods” (priority 2007, dated 2010):
Read-outs that look alike come from different tables or passages of the source.

Columns and labels:
[1] = Arterial blood sampling with octanol separation of freely available and bound fractions; format: in vivo, dogs; settings: 10 min. after injection; remaining activity albumin bound
Procedure: Arterial blood sampling. Blood samples (approximately 0.4-0.5 ml) were drawn from an AV shunt on a schedule similar to the scanning schedule for determination of the arterial input functions. […] Each sample was weighed and counted in a well counter soon after withdrawal, and corrections for radioactive decay were applied to recover time-activity curves for the whole-blood and freely-available arterial input functions for use with compartment modeling. […] While this could potentially complicate measurement of the input function for each tracer; however, at 10 min. after injection the octanol-extractable fraction of PTSM in the blood was only ˜1%, with the remaining activity albumin bound.

[2] = for k1^Stress / k2^Stress / k3^Stress: adenosine stress; for k1^Rest: ± SD from fit covariance
Procedure: Data acquisition. PET scans can be performed using, for example, an Advance™ PET scanner (GE Medical Systems, Waukesha, Wis.) operated in 2D mode, though other PET scanners are contemplated within the scope of this invention. Human subjects, when used, were positioned with arms down and a strap was placed across the chest to immobilize the subject and minimize movement artifacts. Transmission scans (^68Ge rod source) were acquired to position the heart in the field of view (2 min) and for attenuation correction (10 min). […] Scans performed during stress were started at the midpoint of a 6 minute adenosine infusion (0.14 mg kg^−1 min^−1) while vital signs including pulse rate, blood pressure and oxygen saturation were assessed by a physician using standard monitoring equipment.
Dynamic PET data were acquired with a waiting period of about 50-71 min between rest and stress emission scans. Imaging protocols were designed to allow rest and stress components to be added to emulate rapid dual-injection data as further described herein. Rest and stress emission scan data were acquired separately using the following temporal sampling schedule for the first 10 minutes: (12×5 s, 6×10 s, 6×30 s and 5×1 min). For rest scans, this schedule was repeated for another 10 minutes for a total emission scan duration of about 20 minutes. This provided equal duration stress timeframes that could be shifted in time and added to the rest timeframes in order to mimic a rapid dual-injection acquisition while retaining standard single-injection emission scan sequences.
Data processing. According to one embodiment, images were reconstructed using filtered back-projection with a Hanning window cutoff at 1.56 cycles cm^−1. The 128×128 image matrices had 4.3 mm voxels and a slice thickness of 4.25 mm. Data were pre-corrected for attenuation, scatter and randoms prior to reconstruction, but not for radioactive decay because it was included in the kinetic modeling equations. A reference image for each scan was created by summing up timeframes with steady uptake of tracer in the myocardium and used as a guide for reorienting to cardiac short-axis (SA) images. The SA images for all rest and stress timeframes in each subject were co-registered using a template showing the endocardial and epicardial boundaries. Based on visual comparison of an average mid-ventricular slice from each timeframe, the entire SA image volume was shifted manually to align with the template in the plane perpendicular to the SA of the heart. Co-registration was not performed in timeframes where myocardium and blood pool were indistinguishable.
Myocardial regions were selected based on a 17-segment model of the American Society of Nuclear Cardiology (Schelbert et al. 2003), known to those of ordinary skill in the art. On each slice of a reference image, endocardial and epicardial boundaries were drawn and the angle of insertion of the right ventricle into the septum was selected as a landmark for division into sectors. The myocardium was divided into one apical region, four sectors in the apical mid-ventricle, six sectors in the basal mid-ventricle and six sectors in the base of the heart. Blood pool regions were drawn manually in each subject with size restricted to limit partial volume effect and spillover of activity from the myocardium. In each subject, the same regions were applied to all co-registered rest and stress timeframes.

[3] = emulated dual-injection, background subtraction, one typical myocardial region
[4] = emulated dual-injection, combined modeling, one typical myocardial region
[5] = separate single-injection, one typical myocardial region

With CNC(=S)NN=CC(C)=NNC(=S)NC.[Cu] [PTSM, copper-pyruvaldehyde-bis[N4-methylthiosemicarbazone]] as the molecule, how does the “octanol-extractable fraction in the blood” value [1] read?
The value was “roughly 1%”.

With [13NH3] [^13N-ammonia] as the molecule, how does the “k1^Stress” value [2, 3] read?
Its value is 3.50 ± 0.32 mL/min/g.

And the “k2^Stress” value [2, 3]?
Its value is 0.80 ± 0.17.

What about the “k3^Stress” value [2, 3] of the same molecule?
The value was 0.24 ± 0.04.

And the “k1^Stress” value [2, 4]?
The value was 3.44 ± 0.32 mL/min/g.

And the “k2^Stress” value [2, 4]?
Its value is 0.79 ± 0.17.

And the “k3^Stress” value [2, 4]?
Its value is 0.24 ± 0.04.

And the “k1^Stress” value [2, 5]?
The value was 3.33 ± 0.27 mL/min/g.

And the “k2^Stress” value [2, 5]?
Its value is 0.69 ± 0.12.

What about the “k3^Stress” value [2, 5] of the same molecule?
Its value is 0.20 ± 0.03.

And the “k1^Rest” value ([2]; emulated dual-injection data, background subtraction, one typical myocardial region)?
The value was 0.92 ± 0.05 mL/min/g.

And the “k1^Rest” value ([2]; emulated dual-injection data, combined modeling, 20 min, one typical myocardial region)?
The value was 0.93 ± 0.05 mL/min/g.

And the “k2^Rest” value [2, 3]?
The value was 0.13 ± 0.04.

And the “k3^Rest” value [2, 3]?
Its value is 0.08 ± 0.07.

And the “k4^Rest” value [2, 3]?
The value was 0.47 ± 0.02.

What about the “k2^Rest” value [2, 4] of the same molecule?
Its value is 0.14 ± 0.04.

What about the “k3^Rest” value [2, 4] of the same molecule?
Its value is 0.11 ± 0.06.

And the “k4^Rest” value [2, 4]?
Its value is 0.47 ± 0.02.

What about the “k1^Rest” value ([2]; separate single-injection, first 10 min of data, one typical myocardial region (FIG. 5)) of the same molecule?
The value was 0.92 ± 0.05 mL/min/g.

And the “k2^Rest” value [2, 5]?
Its value is 0.13 ± 0.04.

What about the “k3^Rest” value [2, 5] of the same molecule?
The value was 0.08 ± 0.07.

And the “k4^Rest” value [2, 5]?
Its value is 0.47 ± 0.02.
